US8859596B2, “Compounds as cannabinoid receptor ligands” (priority 2008, dated 2014)

How the values were obtained:
[1] = acute thermal, persistent, inflammatory, neuropathic pain models; cited from earlier work
[2] = molecular target: T1, rat CB2 (Rattus norvegicus (Rat), UniProt Q9QZN9); test: CB2 cyclase functional assay (HitHunter cAMP); type: cell-based; details: HEK cells, forskolin 18 μM
Description: (§1) The cyclase functional assays were performed using the HitHunter™ cAMP assay kit from DiscoveRx (Fremont, Calif.) according to vendor's protocol. Briefly, HEK cells expressing CB2 or CB1 receptors (rat or human) were detached using cell dissociation buffer (Invitrogen, Carlsbad, Calif.), dispersed and placed in suspension at 10,000 cells per well in 96 well plates prior to the assay. Cell suspensions were incubated at 37° C. for 20 min with variable concentrations of test ligands and or 10 μM CP 55,940-positive control in the presence of a fixed concentration of forskolin (18 μM for rat CB2 and 37 μM for rat CB1) in Dulbescco's phosphate-buffered saline (Invitrogen, Carlsbad, Calif.) supplemented with bovine serum albumin (0.01% final concentration). The reactions were terminated by the addition of lysis buffer and the luminescence was detected following the procedure according to the manufacturer's instructions. EC50 values were calculated using sigmoidal dose-response curve fitting from Prism (GraphPad).

[3] = molecular target: T1, rat CB2; test: rat CB2 radioligand binding assay ([3H]CP 55,940 competition); details: HEK293 membranes, 0.5 nM [3H]CP 55,940; read-out: rat CB2 (Ki)
Procedure, shortened: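 Membranes from HEK293 cells stably expressing rat CB2 (20 μg protein/well) competed with 0.5 nM [3H]CP 55,940 and five displacer concentrations, 45 min at 30° C in Tris/EDTA/MgCl2/BSA buffer pH 7.4. Filtration and scintillation counting; nonspecific binding with 10 μM unlabeled CP 55,940.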

[4] = molecular target: rat CB1 (Rattus norvegicus (Rat), UniProt P20272); test: CB1 cyclase functional assay (HitHunter cAMP); type: cell-based; details: HEK cells, forskolin 37 μM; read-out: rCB1 cyclase (EC50)
Description: as §1

[5] = molecular target: human CB2 receptors (Homo sapiens (Human), UniProt P34972); test: human CB2 radioligand binding assay ([3H]CP 55,940 competition); details: HEK293 membranes, 0.5 nM [3H]CP 55,940; read-out: human CB2 (Ki)
human CB2 receptors, sequence (P34972 whole entry): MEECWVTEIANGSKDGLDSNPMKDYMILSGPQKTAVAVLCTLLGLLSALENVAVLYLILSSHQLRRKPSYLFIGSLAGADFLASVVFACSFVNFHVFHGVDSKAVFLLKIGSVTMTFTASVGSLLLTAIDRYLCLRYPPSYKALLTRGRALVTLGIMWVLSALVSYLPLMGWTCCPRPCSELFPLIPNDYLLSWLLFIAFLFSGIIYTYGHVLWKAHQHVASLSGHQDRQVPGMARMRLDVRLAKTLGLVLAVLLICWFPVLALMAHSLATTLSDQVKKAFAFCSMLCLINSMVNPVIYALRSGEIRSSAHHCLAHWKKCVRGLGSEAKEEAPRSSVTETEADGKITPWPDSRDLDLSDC
Procedure, shortened: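 Membranes from HEK293 cells stably expressing human CB2 (5 μg protein/well) competed against 0.5 nM [3H]CP 55,940 with five concentrations of test ligand (0.01 nM to 10 μM), pH 7.4 Tris buffer with BSA, 90 min at 30 °C. Filtration and scintillation counting; nonspecific binding with 10 μM unlabeled CP 55,940.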

[6] = neuropathic, incisional, chronic and acute inflammatory pain; cited from earlier work
[7] = system: rat; details: rat formalin model; cited from earlier work
[8] = system: β-amyloid-induced microglial activation; details: in vitro; cited from earlier work
[9] = system: apolipoprotein E knockout mice; details: low doses; cited from earlier work
[10] = system: mice; details: cited from earlier work

T1 sequence (Q9QZN9 whole entry): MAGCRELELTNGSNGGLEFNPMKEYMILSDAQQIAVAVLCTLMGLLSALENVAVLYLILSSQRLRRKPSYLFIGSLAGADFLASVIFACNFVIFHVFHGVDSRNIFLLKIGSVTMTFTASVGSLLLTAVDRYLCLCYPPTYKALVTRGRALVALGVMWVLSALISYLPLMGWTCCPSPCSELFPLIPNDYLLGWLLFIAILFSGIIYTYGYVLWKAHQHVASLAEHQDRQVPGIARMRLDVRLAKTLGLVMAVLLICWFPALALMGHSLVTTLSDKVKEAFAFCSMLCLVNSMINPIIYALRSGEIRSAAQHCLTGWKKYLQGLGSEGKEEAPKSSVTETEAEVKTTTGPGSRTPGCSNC

| Compound | EC50 [2] [nM] | Ki [3] [nM] | EC50 [4] [nM] | Ki [5] [nM] | also measured |
| --- | --- | --- | --- | --- | --- |
| CN1CCCCC1Cn1cc(C(=O)c2cc([N+](=O)[O-])ccc2I)c2ccccc21 (centres unmarked) [AM-1241] |  |  |  |  | analgesic efficacy [1]: robust analgesic efficacy |
| CCCCn1nc(C(C)(C)C)s/c1=N\C(=O)c1cc(C(F)(F)F)ccc1ONC(C)=O [Example 154, 2-[(acetylamino)oxy]-N-[(2Z)-3-butyl-5-tert-butyl-1,3,4-thiadiazol-2(3H)-ylidene]-5-(trifluoromethyl)benzamide] | 1.5 | 1 | 58 | 1 |  |
| CC(C)(C)NOc1ccc(C(F)(F)F)cc1C(=O)/N=c1\sc(C(C)(C)C)nn1CCCC(F)(F)F [Example 164, 2-[(tert-butylamino)oxy]-N-[(2Z)-5-tert-butyl-3-(4,4,4-trifluorobutyl)-1,3,4-thiadiazol-2(3H)-ylidene]-5-(trifluoromethyl)benzamide] | 0.28 | 0.3 | 1020 | 1.8 |  |
| CC(C)(C)NOc1ccc(C(F)(F)F)cc1C(=O)/N=c1\sc(C(C)(C)C)nn1CC1CCC1 [Example 165, 2-[(tert-butylamino)oxy]-N-[(2Z)-5-tert-butyl-3-(cyclobutylmethyl)-1,3,4-thiadiazol-2(3H)-ylidene]-5-(trifluoromethyl)benzamide] | 0.93 | 0.8 | 925 | 2.8 |  |
| CCCCn1nc(C(C)(C)C)s/c1=N\C(=O)c1cc(C(F)(F)F)ccc1ON=C(N)C(C)(C)C [Example 166, 2-({[1-amino-2,2-dimethylpropylidene]amino}oxy)-N-[(2Z)-3-butyl-5-tert-butyl-1,3,4-thiadiazol-2(3H)-ylidene]-5-(trifluoromethyl)benzamide] | 3.14 | 43 | 6960 | 65 |  |
| CCCCn1nc(C(C)(C)C)s/c1=N\C(=O)c1cc(C(F)(F)F)ccc1ON=C(C)C(F)(F)F [Example 172, N-[(2Z)-3-butyl-5-tert-butyl-1,3,4-thiadiazol-2(3H)-ylidene]-5-(trifluoromethyl)-2-({[2,2,2-trifluoro-1-methylethylidene]amino}oxy)benzamide] | 28 | 60 | > 27000 | 52 |  |
| COc1ccc2c(c1)c(CCN1CCOCC1)c(C)n2C(=O)c1cccc(Cl)c1Cl [GW405833] |  |  |  |  | efficacy in pain models [6]: efficacious |
| CCCCCCC(C)(C)c1cc(OC)c([C@@H]2C=C(CO)[C@@H]3C[C@H]2C3(C)C)c(OC)c1 [HU-308] |  |  |  |  | antinociceptive response [7]: elicits an antinociceptive response |
| CCCC(C)(C)c1ccc2c(c1)OC(C)(C)[C@@H]1CC=C(C)C[C@@H]21 [JWH-133] |  |  |  |  | effect on β-amyloid-induced microglial activation and neurotoxicity [8]: abrogated β-amyloid-induced microglial activation and neurotoxicity |
| (−)-Δ^9-Tetrahydrocannabinol [THC] |  |  |  |  | effect on progression of atherosclerotic lesions [9]: slowed the progression of atherosclerotic lesions |
| SR144528 |  |  |  |  | effect on osteoclast activity and ovariectomy-induced bone loss [10]: inhibit osteoclast activity and reverse ovariectomy-induced bone loss |
